Data reported in patent US20170044521A1, “BIOMASS EXTRACTS AND METHODS THEREOF” (Lakeview Nutrition LLC, priority 2014, published 2017).
Read-outs that look alike come from different tables or passages of the source.

Tests used:
[1] = Bioavailability study: absorption of DDGS phytochemicals in plasma of mice after oral gavage of DDGS extracts; conditions: oral gavage of 2 mL alcohol extract (AE) or oil extract (OE) of DDGS, plasma sampled at 0, 0.5, 1.0, 3.0, 7.0 and 24 hr, HPLC
Description: (§1) Thirty-six male CD-1 mice (22-24 g) were purchased from Charles River Labs (Wilmington, Mass.). Before the study, they were allowed acclimation for at least 3 days in an SPF facility. Animal housing, handling and procedures were conducted under the protocols or guidelines approved by the Institutional Animal Care and Use Committee (IACUC) of Cephrim Biosciences, Inc. (Woburn, Mass.). Three mice were housed in each cage. The temperature, humidity and light/dark cycle were well maintained at 68-76° F., 40-60% relative humidity, with a 12 h light/dark cycle. Mice were allowed free access to water and food.
(§2) On the first day of the study, the mice were randomly assigned into two groups, alcohol extract (AE, of DDGS) group and oil extract (OE, of DDGS) group. Each group of mice was further divided into 6 subgroups, representing 6 time points (i.e., 0 hr, 0.5 hr, 1.0 hr, 3.0 hr, 7.0 hr and 24 hr). Each of two extracts was given to each group of mice by oral gavage at the dosage of 2 mL for AE and 2 mL for OE. The time of dosing was set as the Time Zero. Blood samples were collected by cardiac puncture and were immediately transferred to a set of heparinized tubes.
(§3) Blood samples at Time-0 hr were collected right before dosing. And at each of rest 5 time points the Time-0.5 hr, -1.0 hr, -3.0 hr, -7.0 hr and −24 hr after the extracts were given, blood samples were collected from each subgroup (n=3). All blood samples were placed on ice after their collection and were spun at 14000 rpm/min. The top plasma were transferred into new pre-labeled tubes and the samples were stored at −70° C. until analysis.
(§4) Mice plasmas (150 pt) were mixed with 600 pt of hexane and shaken at 200 rpm for 10 min. The mixtures were centrifuged at 14,000 rpm for 6 min. The supernatant was evaporated to dryness under nitrogen and replaced with 100 pt of methanol. […]
(§5) Compounds were separated on a C30 reverse-phase column (250×4.6 mm, 5 um) at a flow rate of 1 mL/min. […] The detection was conducted in a fluorescence detector with excitation of 292 nm and emission of 336 nm. […]

[2] = mouse, in vivo, po
Description: as §1, §2, §3, §4, §5

| SMILES | time of maximal absorption in plasma of mice after gastric infusion [1] [h] | time of maximal absorption in plasma of mice after gastric infusion [2] [h] |
| --- | --- | --- |
| Cc1c(O)cc2c(c1C)O[C@](C)(CCC[C@H](C)CCC[C@H](C)CCCC(C)C)CC2 [gamma-tocopherol] | 3 | – |
| CC(C)=CCC/C(C)=C/CC/C(C)=C/CC[C@]1(C)CCc2cc(O)cc(C)c2O1 [delta-tocotrienol] | – | 24 |
| Cc1c(C)c2c(c(C)c1O)CC[C@@](C)(CCC[C@H](C)CCC[C@H](C)CCCC(C)C)O2 [alpha-tocopherol] | – | 3 |
